Experimental data as given in publication PMC11320734 (ACS Pharmacology & Translational Science, 2024).
≈ marks a conversion by molar mass, not a printed value.

How the values were obtained:
FAAH = FAAH (Homo sapiens, UniProt O00519); test: Endocannabinoid target profiling: FAAH; type: biochemical; conditions: screening concentration 10 μM
[1] = test system: UUO-induced kidney fibrosis; test: Unilateral ureteral obstruction (UUO) model of kidney fibrosis; type: in vivo, Sprague–Dawley rats
Method: In the ischemia/reperfusion (I/R) model of acute kidney injury (AKI),[47],[48] the compounds were administered orally by gavage to C57BL/6 mice 30 min before ischemia obtained by clamping both renal arteries and veins for 25 min, followed by 24 h of reperfusion. Mice were anesthetized using xylazine (10 mg kg^–1)/ketamine (100 mg kg^–1) injected intraperitoneally. Sham treated mice were treated identically except for the temporary closure of the renal vessels. After 24 h, under reanesthesia, plasma was taken for biomarker analysis. Thereafter, mice still in deep anesthesia were sacrificed by cervical dislocation. Creatinine, BUN (blood urea nitrogen), NGAL (neutrophil gelatinase-associated lipocalin), osteopontin, and KIM1 (kidney injury molecule-1) levels were determined using the following commercially available standard assays: creatinine: Roche Diagnostics 03263991, BUN: Roche Diagnostics 04460715, NGAL: BioPorto, Kit046 + Kit042, osteopontin: R&D Systems, MOST00, KIM-1: Abnova, KA1064. To assess fibrotic effects, we used the unilateral ureteral obstruction (UOO) model in Sprague–Dawley rats.[49] For the UOO model, rats were sacrificed after 5, 8, and 11 days and the percentage of PicroSirius Red positive areas (indicator of collagen III–I deposition) were measured in 4 μm histological cross sections of the kidney after 2% paraformaldehyde perfusion fixation and paraffin embedding. The extend of kidney fibrosis was quantified based on PicroSirius Red staining of 10 renal sections about 1 mm apart from each kidney. The collagen–III-I-positive pixel counts were determined in the cortical aspect of each kidney section from 10 optical fields using a 40× objective. As the total area analyzed was identical for all kidneys under investigation, the absolute number of pixels was used as the relevant readout. Vehicle treated animals received saline gavage only. The details of PicroSirius Red staining were previously described.[22]

COX-2 = COX-2 (Homo sapiens, UniProt P35354); test: Endocannabinoid target profiling: COX-2; type: biochemical
[2] = Lyophilization solubility assay (LYSA); type: physicochemical; conditions: aqueous buffer, thermodynamic from solid; kinetic, phosphate buffer pH 6.5
Method: For the determination of the octanol/water distribution coefficient (logD), the carrier-mediated distribution system (CAMDIS)-assay was used as described elsewhere.[38] Kinetic and thermodynamic solubilities were assessed using the lyophilization solubility assay (LYSA) and thermodynamic solubility assay (THESA), respectively. For the LYSA, the solubility of RNB- 61 in phosphate buffer at pH 6.5 from an evaporated 10 mM DMSO compound stock solution was measured. Two aliquots of the test compounds were dried and dissolved in phosphate buffer at pH 6.5. The solutions were then filtered and diluted (3 different dilution levels for each compound) before high throughput mass spectrometry (MS) analysis was performed in an Agilent RapidFire system. Each test compound was quantified using a 6-point calibration curve prepared with the same DMSO starting solution. For THESA, RNB-61 (8.6 mg per mL solvent/vehicle) was stirred in HPLC vials (9 × 12 × 32 mm, Waters) at 350 rpm for 15 h. The presence of solid particles was determined by microscopic analysis of 10 μL samples. If the active pharmacological ingredient (API) was completely dissolved, more solid API was added before stirring for another 15 h. This step was repeated for up to 96 h or until residual solid particles could be detected. […] The filtrates were diluted in ethanol and analyzed by ultra-performance liquid chromatography (UPLC). […]

COX-2, sequence (P35354 18-604): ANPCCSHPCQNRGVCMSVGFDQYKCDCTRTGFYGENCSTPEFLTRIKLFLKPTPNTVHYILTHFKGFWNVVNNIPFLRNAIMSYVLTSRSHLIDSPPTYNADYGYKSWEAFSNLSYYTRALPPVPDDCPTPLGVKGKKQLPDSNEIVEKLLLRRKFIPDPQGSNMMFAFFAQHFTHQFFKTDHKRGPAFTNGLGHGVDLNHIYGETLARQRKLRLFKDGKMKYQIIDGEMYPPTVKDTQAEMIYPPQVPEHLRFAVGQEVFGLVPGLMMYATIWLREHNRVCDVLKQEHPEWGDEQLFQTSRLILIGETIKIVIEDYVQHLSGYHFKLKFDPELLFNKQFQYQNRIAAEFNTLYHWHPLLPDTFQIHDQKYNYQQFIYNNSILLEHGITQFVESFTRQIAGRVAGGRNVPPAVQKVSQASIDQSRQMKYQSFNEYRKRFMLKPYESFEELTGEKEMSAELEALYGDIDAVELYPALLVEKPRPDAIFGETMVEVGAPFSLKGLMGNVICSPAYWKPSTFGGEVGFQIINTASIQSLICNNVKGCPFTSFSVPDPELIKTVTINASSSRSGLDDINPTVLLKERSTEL
FAAH, sequence (O00519 whole entry): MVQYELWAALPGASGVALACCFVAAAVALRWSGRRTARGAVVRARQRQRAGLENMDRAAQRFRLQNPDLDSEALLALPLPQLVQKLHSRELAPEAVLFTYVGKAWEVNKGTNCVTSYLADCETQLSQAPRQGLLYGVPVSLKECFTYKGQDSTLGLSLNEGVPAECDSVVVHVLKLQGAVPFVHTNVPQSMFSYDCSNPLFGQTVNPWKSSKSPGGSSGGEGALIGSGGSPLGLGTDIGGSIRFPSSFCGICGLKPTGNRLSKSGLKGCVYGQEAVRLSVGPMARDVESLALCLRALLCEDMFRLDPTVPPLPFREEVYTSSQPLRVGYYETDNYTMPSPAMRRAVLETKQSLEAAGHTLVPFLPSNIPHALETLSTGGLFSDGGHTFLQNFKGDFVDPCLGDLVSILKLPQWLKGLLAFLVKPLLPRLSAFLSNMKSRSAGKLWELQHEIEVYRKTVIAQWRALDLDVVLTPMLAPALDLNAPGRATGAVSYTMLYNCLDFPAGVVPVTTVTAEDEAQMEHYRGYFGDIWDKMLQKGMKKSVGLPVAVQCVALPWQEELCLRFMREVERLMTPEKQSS

Cn1c(C(C)(C)C)cc(=NC(=O)c2cc(C(F)(F)F)ccc2OCC(C)(C)O)n1CC1CCC1 [RNB-61]
inhibition of EC hydrolysis by FAAH (FAAH): did not inhibit | inhibition of accumulation of collagen–III-I ([1]; 3 mg kg^–1, day 8): 61% | collagen–III-I positive area vs vehicle ([1]; all three doses (printed 0.3, 3, and 3 mg kg^–1), day 8): significant reduction | IC50 (COX-2; Table S1, read-out: COX-2 (Ki, IC50)): > 10 µM | inhibition of EC oxygenation (COX-2) (COX-2; screening concentration 10 μM): did not inhibit | solubility [2]: 194 µg/mL (≈ 403 µM)
